From BindingDB's records for doi:10.1016/j.bmc.2018.11.002 (2018)

Key:
[1] = Inhibition of mouse GAT3 expressed in HEK293 cells assessed as reduction in [3H]GABA uptake preincubated for 25 mins followed by [3H]GABA addition and measured after 4 mins by liquid scintillation counting method
[2] = Inhibition of mouse GAT2 expressed in HEK293 cells assessed as reduction in [3H]GABA uptake preincubated for 25 mins followed by [3H]GABA addition and measured after 4 mins by liquid scintillation counting method

COc1ccc(C(/C=C/CN2CCCC(C(=O)O)C2)(c2ccc(OC)cc2)c2ccsc2)cc1 (stereo not given)
IC50 [1]: 42.7 µM

Cc1ccc(C(/C=C/CN2CCCC(C(=O)O)C2)(c2ccc(C)cc2)c2ccc(C)cc2)cc1 (stereo not given)
IC50 [2]: 14.1 µM
IC50 [1]: 15.8 µM

COc1ccc(C(/C=C/CN2CCCC(C(=O)O)C2)(c2ccc(OC)cc2)c2ccc3sccc3c2)cc1 (stereo not given)
IC50 [2]: 25.1 µM
IC50 [1]: 20 µM

COc1ccc(C(C/C=C/CN2CCCC(C(=O)O)C2)(c2ccc(OC)cc2)c2ccc(OC)cc2)cc1 (stereo not given)
IC50 [1]: 85.1 µM

COc1ccc(C(/C=C/CN2CCC[C@H](C(=O)O)C2)(c2ccc(OC)cc2)c2ccc3sccc3c2)cc1
IC50 [2]: 23.4 µM

COc1ccc(C(/C=C/CN2CCCC(C(=O)O)C2)c2ccc(OC)cc2)cc1 (stereo not given)
IC50 [1]: 53.7 µM

COc1ccc(C(/C=C/CN2CCCC(C(=O)O)C2)(c2ccc(OC)cc2)c2ccc3c(c2)OCO3)cc1 (stereo not given)
IC50 [1]: 10.2 µM

O=C(O)C1CCCN(C/C=C/C(c2ccc3sccc3c2)(c2ccc3sccc3c2)c2ccc3sccc3c2)C1 (stereo not given)
IC50 [2]: 33.9 µM
IC50 [1]: 52.5 µM

O=C(O)C1CCCN(C/C=C/C(c2ccc3occc3c2)(c2ccc3occc3c2)c2ccc3occc3c2)C1 (stereo not given)
IC50 [2]: 9.55 µM
IC50 [1]: 5.5 µM

O=C(O)C1CCCN(C/C=C/C(c2ccc3c(c2)OCO3)(c2ccc3c(c2)OCO3)c2ccc3c(c2)OCO3)C1 (stereo not given)
IC50 [2]: 89.1 µM
IC50 [1]: 24.5 µM
